Values quoted from earlier work in patent US20250195458A1, “SHORT-CHAIN FATTY ACIDS FOR CANCER TREATMENT” (priority 2022, published 2025).

Tests used:
[1] = system: colorectal cancer cells; conditions: literature summary of Example 2
[2] = system: human lung cancer cells; conditions: literature summary of Example 2
[3] = system: pancreatic carcinoma cell lines (Capan-2, AsPC-1, and MiaPaCa-2); conditions: Capan-2, AsPC-1, MiaPaCa-2; literature summary of Example 2
[4] = system: pancreatic cancer; conditions: literature summary of Example 2

CCC(=O)O [Propionate]
Anti-tumor effect in colorectal cancer (apoptosis) [1]: induces apoptosis in colon cancer
Apoptosis and cell cycle arrest, lung cancer [2]: triggering cell apoptosis and cell cycle arrest

CC(=O)O[C@]1(C(C)=O)CC[C@H]2[C@@H]3C[C@H](C)C4=CC(=O)CC[C@]4(C)[C@H]3CC[C@@]21C [Medroxyprogesterone acetate]
Proliferation of pancreatic carcinoma cell lines [3]: blocks the proliferation

CCCC(=O)[O-].[Na+] [Sodium butyrate]
Invasion of pancreatic cancer [4]: hinders the invasion of pancreatic cancer
Expression levels of P-gp and STAT3 in human lung cancer cells [2]: increases the expression levels of P-gp and STATS3

CC(=O)O [Acetate]
Anti-tumor effect in colorectal cancer (apoptosis) [1]: triggers apoptosis in colorectal cancer cells
